This is an account of results in PMC2866539, “HLA Class I Binding 9mer Peptides from Influenza A Virus Induce CD4^+ T Cell Responses” (PLoS ONE, 2010).

Experiment [1] deals with T1, DPA1*0103/DPB1*0401 (Homo sapiens, UniProt P04440+P20036).
T1 construct: made in house
T1 sequence (P20036 32-222 limits assumed): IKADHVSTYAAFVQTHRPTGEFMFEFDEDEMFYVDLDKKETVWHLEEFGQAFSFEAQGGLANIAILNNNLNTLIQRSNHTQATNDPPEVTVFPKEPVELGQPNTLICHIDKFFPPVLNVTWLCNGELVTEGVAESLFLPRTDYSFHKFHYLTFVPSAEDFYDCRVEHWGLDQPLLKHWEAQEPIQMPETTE
T1 sequence (P04440 30-225 limits assumed): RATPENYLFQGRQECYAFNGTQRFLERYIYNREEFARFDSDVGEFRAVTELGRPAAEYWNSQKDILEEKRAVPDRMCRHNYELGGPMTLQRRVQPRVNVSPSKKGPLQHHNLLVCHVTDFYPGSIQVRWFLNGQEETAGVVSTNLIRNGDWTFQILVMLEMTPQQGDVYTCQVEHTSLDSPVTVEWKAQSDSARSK
The experiment is described as follows: biochemical. It counts as binding.

Experiment [2] has as its target T2, DRA1*0101/DRB5*0101 (Homo sapiens, UniProt P01903+Q30154).
T2 construct: made in house
Briefly: biochemical. It counts as binding.

Experiment [3] concerns the target DRA1*0101/DRB1*0302 (Homo sapiens, UniProt P01903+P01911, A100K/A102G/A103R/A169T/D57E/F76Y/I96L/K41T/L162R/M171V/P40S/Q125H/Q178H/Q39Y/R42S/S66N/T106N/T262R/V115G/W38E/Y61H). Briefly: biochemical. It counts as binding.
The target of experiment [4] is T3, DRA1*0101/DRB1*0101 (Homo sapiens, UniProt P01903+P01911, A100R/D57E/F55L/F60I/F76Y/I96L/L162R/M171V/P40L/Q125E/R42F/V115G/Y59C).
T3 construct: made in house
Briefly: biochemical. The experiment is classed as binding.

Experiment [5] has as its target DRA1*0101/DRB1*0301 (Homo sapiens, UniProt P01903+P01911, A100K/A102G/A103R/A169T/F55Y/I96L/K41T/L162R/M171V/P40S/Q125H/Q178H/Q39Y/R42S/S66N/T106N/T262R/W38E/Y61H). Briefly: biochemical. The experiment is classed as binding.
For experiment [6], the target named is T4, DRA1*0101/DRB1*0401 (Homo sapiens, UniProt P01903+P01911, A100K/A169T/F76Y/I96L/K127E/L162R/M171V/N62H/P40V/Q125Y/R42H/S133A/S149N/S66Y/V115G/V209L/W38E).
T4 construct: made in house
The experiment is described as follows: biochemical. The experiment is classed as binding.

Experiment [7] has as its target DRA1*0101/DRB3*0301 (Homo sapiens, UniProt P01903+P79483, A169T/A212P/D57E/G115V/L67V/Q178H/R103Q/R40L/Y55F). Briefly: biochemical. It counts as binding.
In experiment [8] the target is HLA-B7 (Homo sapiens, UniProt P01889). The experiment is described as follows: biochemical. The experiment is classed as binding.
Experiment [9] deals with PBMC from responding donors. It counts as cell-based, human.
Experiment [10] has as its system PBMC from HLA-matched donors. It counts as cell-based, human.
The target in experiment [11] is HLA-A3 (Homo sapiens, UniProt P04439). Briefly: biochemical.
For experiment [12], the system named is freshly harvested PBMC. The note with it: cited from earlier work.

Where no end group is shown, it is not given here.

Chain of DRA1*0101/DRB1*0301 (P01903 26-254 limits assumed, other chains not shown): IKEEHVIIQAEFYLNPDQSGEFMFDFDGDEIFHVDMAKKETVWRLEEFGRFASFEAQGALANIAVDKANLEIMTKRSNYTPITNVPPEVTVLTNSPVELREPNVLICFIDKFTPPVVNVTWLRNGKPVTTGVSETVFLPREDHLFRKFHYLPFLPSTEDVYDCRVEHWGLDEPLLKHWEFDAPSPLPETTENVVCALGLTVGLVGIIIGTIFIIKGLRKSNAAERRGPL
Chain of DRA1*0101/DRB3*0301 (P01903 26-254 limits assumed): as the sequence (P01903 26-254 limits assumed, other chains not shown) above
Chain of DRA1*0101/DRB3*0301 (P79483 30-266 R40L/Y55F/D57E/L67V/R103Q/G115V/A169T/Q178H/A212P limits assumed): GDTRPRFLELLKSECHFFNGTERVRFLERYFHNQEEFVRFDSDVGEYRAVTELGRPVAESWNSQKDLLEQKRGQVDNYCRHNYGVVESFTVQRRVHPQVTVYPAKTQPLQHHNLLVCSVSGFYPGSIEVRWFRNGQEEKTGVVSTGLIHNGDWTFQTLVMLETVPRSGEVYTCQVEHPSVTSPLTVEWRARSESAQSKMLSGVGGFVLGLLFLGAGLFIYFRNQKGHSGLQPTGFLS
Chain of HLA-B7 (P01889 25-299): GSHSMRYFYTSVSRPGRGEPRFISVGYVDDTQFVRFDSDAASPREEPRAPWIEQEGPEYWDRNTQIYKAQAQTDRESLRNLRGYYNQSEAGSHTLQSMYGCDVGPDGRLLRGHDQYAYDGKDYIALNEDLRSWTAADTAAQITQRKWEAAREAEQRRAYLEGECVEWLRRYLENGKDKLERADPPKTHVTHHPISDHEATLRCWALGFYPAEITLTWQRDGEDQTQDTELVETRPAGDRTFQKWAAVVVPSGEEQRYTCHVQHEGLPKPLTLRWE
Chain of HLA-B7 (P61769 21-119, further chain): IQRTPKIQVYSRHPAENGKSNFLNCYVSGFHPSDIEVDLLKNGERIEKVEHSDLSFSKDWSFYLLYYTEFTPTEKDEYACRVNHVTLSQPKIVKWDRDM
Chain of HLA-A3 (P04439 25-299): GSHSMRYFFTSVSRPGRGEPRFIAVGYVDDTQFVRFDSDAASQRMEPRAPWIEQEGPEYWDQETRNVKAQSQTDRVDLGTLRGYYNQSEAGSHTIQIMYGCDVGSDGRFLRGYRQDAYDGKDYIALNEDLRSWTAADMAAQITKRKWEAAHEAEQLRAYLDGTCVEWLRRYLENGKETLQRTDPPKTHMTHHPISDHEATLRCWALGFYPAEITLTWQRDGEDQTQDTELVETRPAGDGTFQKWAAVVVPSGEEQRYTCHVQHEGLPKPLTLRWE
Chain of HLA-A3 (P61769 21-119, further chain): as the sequence (P61769 21-119, further chain) above

Turning to “YILLKKILSSRFNQM [hypothetical protein 239–253, reference compound]”, the results for the Kd in [1] and in experiment [2] were 0.025 µM and 0.017 µM, respectively.

In the case of “YKYVKQNTLKLAT [HA306–318, reference compound]”, the Kd in [3] is 0.053 µM; in [4], 0.108 µM; in experiment [1] it was > 5 µM; in experiment [5] it was 0.026 µM; in experiment [2], 0.012 µM; in [6], 0.015 µM. In addition, the Kd in experiment [7] was determined as 0.003 µM.

Consider IMLKANFSV [PF-103], for which the Kd is > 5 µM in [3]; 3.43 µM in [4]; > 5 µM in experiment [1]; > 5 µM in experiment [5]; > 5 µM in [2]; 1.39 µM in experiment [6]. Further, in [7], the Kd is 0.018 µM.

As to ETIVLLRAF [PF-113], the Kd is > 5 µM in experiment [3]; 3.73 µM in [4]; > 5 µM in experiment [1]; > 5 µM in [5]; 0.78 µM in experiment [2]; > 5 µM in experiment [6]. Further, the Kd in experiment [7] is > 5 µM.

For YPRYPGVRC [PF-145], in experiment [8], the Kd amounted to 0.011 µM.

With LVSLGAISF [PF-148], the Kd is > 5 µM in experiment [3]; 4.34 µM in [4]; > 5 µM in experiment [1]; > 5 µM in experiment [5]; > 5 µM in [2]; > 5 µM in [6]. In addition, in experiment [7], the Kd was > 5 µM.

For the sequence VTIGECPKY [PF-110], in experiment [9], the “SFC/1×10^5 PBMC+Peptide, IVA12” value is 5±3 SFC/1×10^5 PBMC; the “SFC/1×10^5 PBMC+Peptide, Isotype” value came out at 163±28 SFC/1×10^5 PBMC; the “SFC/1×10^5 PBMC+Peptide, W6/32” value is 165±4 SFC/1×10^5 PBMC. Also, the “+Peptide, IFNγ spot forming cell numbers” value in experiment [10] is 247±13 per 10^5 PBMC.

Take ILWILDRLF [PF-140]: in experiment [9], the “SFC/1×10^5 PBMC+Peptide, IVA12” value came to 1±1 SFC/1×10^5 PBMC; the “SFC/1×10^5 PBMC+Peptide, Isotype” value was determined as 32±3 SFC/1×10^5 PBMC; the “SFC/1×10^5 PBMC+Peptide, W6/32” value is 43±19 SFC/1×10^5 PBMC. The “+Peptide, IFNγ spot forming cell numbers” value in experiment [10] was determined as 17±4 per 10^5 PBMC.

As to YVKQNTLKL [PF-152], the Kd in experiment [3] was 2.22 µM; in experiment [4] it was 1.2 µM; in [1], > 5 µM; in experiment [5] it was > 5 µM; in experiment [8], 0.072 µM; in experiment [2], 0.405 µM. The Kd came out at 0.226 µM in experiment [6] and 0.356 µM in [7].

In turn, TIHDRIPHR [PF-116] showed a Kd in [11] of 0.062 µM.

On to LPFHNVHPL [PF-147], for which the Kd in experiment [3] is > 5 µM; in experiment [4], > 5 µM; in experiment [1] it was > 5 µM; in [5] it was > 5 µM; in [8], 0.006 µM; in experiment [2], 3.7 µM. Moreover, the Kd in [6] and in experiment [7] was > 5 µM in each case.

For LPFQNVHPV [PF-150], the Kd in [3] is > 5 µM; in experiment [4], > 5 µM; in experiment [1] it was > 5 µM; in experiment [5], > 5 µM; in experiment [8], 0.161 µM; in [2], 1.2 µM. For the same sequence, the Kd in experiment [6] and in experiment [7] was > 5 µM throughout.

On to LMNELGVPF [PF-141], for which the Kd in experiment [3], in experiment [4], in experiment [1], in experiment [5], in experiment [2] and in experiment [6] was > 5 µM each time. Besides, the affinity in experiment [7], expressed as Kd, was 4.01 µM.

On to DPLVVAASI [PF-146], for which, in experiment [9], the “SFC/1×10^5 PBMC+Peptide, IVA12” value is reported as 2±2 SFC/1×10^5 PBMC; the “SFC/1×10^5 PBMC+Peptide, Isotype” value came out at 17±1 SFC/1×10^5 PBMC; the “SFC/1×10^5 PBMC+Peptide, W6/32” value amounted to 18±3 SFC/1×10^5 PBMC. For the same sequence, the “+Peptide, IFNγ spot forming cell numbers” value in experiment [10] was determined as 42±8 per 10^5 PBMC. For the same sequence, the “antigenicity in ELISPOT of Assarsson et al” value in experiment [12] is recorded as “failed to show antigenicity”.

With IAPWYAFAL [PF-154], the Kd in experiment [3] is > 5 µM; in experiment [4], > 5 µM; in [1] it was > 5 µM; in experiment [5], > 5 µM; in experiment [2] it was 1.7 µM; in experiment [6], > 5 µM. In addition, the Kd in [7] is > 5 µM.
